system: recombinant NL4-3 virus (Renilla luciferase in nef, Gag P373S; NLRluc) in MT-2 cells; assay: whole plant or invertebrate; type: cell-based, HIV; settings: Renilla, NL43
How it was run: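 MT-2 cells in RPMI 1640 with 10% heat-inactivated FBS were infected with the reporter virus, made by transfecting the proviral clone into 293T cells, and cultured 4-5 days with serial inhibitor dilutions. Antiviral activity was quantified from Renilla luciferase activity measured in lysed cells.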

Compound | EC50 [nM]
C=C(C)[C@@H]1CC[C@]2(NCCNC3CCS(=O)(=O)C3)CC[C@]3(C)[C@H](CC[C@@H]4[C@@]5(C)CC=C(c6ccc(C(=O)O)cc6)C(C)(C)[C@@H]5CC[C@]43C)[C@@H]12 (stereo partly drawn) [Example B8, 4-((1R,3aS,5aR,5bR,7aR,11aS,11bR,13aR,13bR)-3a-((2-((1,1-dioxidotetrahydrothiophen-3-yl)amino)ethyl)amino)-5a,5b,8,8,11a-pentamethyl-1-(prop-1-en-2-yl)-2,3,3a,4,5,5a,5b,6,7,7a,8,11,11a,11b,12,13,13a,13b-octadecahydro-1H-cyclopenta[a]chrysen-9-yl)benzoic acid] | < 100

same assay, conditions: Renilla, NL43, luciferase activity in cells infected for 4-5 days with NLRluc recombinants, serial dilutions of inhibitor; class symbols (key in Table 1); read-out: EC50

Compound | EC50 [nM]
CNC(=O)CN[C@]12CC[C@@H](C(C)C)[C@@H]1[C@H]1CC[C@@H]3[C@@]4(C)CC[C@H](c5ccc(C(=O)O)cc5)C(C)(C)[C@@H]4CC[C@@]3(C)[C@]1(C)CC2 [Example B10, 4-((1S,3aS,5aR,5bR,7aS,9S,11aS,11bR,13aR,13bR)-1-isopropyl-5a,5b,8,8,11a-pentamethyl-3a-((2-(methylamino)-2-oxoethyl)amino)icosahydro-1H-cyclopenta[a]chrysen-9-yl)benzoic acid] | < 100
CC(C)[C@@H]1CC[C@]2(NCCCN3CCOCC3)CC[C@]3(C)[C@H](CC[C@@H]4[C@@]5(C)CC=C(c6ccc(C(=O)O)cc6)C(C)(C)[C@@H]5CC[C@]43C)[C@@H]12 [Example B11, 4-((1S,3aS,5aR,5bR,7aR,11aS,11bR,13aR,13bR)-1-isopropyl-5a,5b,8,8,11a-pentamethyl-3a-((3-morpholinopropyl)amino)-2,3,3a,4,5,5a,5b,6,7,7a,8,11,11a,11b,12,13,13a,13b-octadecahydro-1H-cyclopenta[a]chrysen-9-yl)benzoic acid] | < 100
C=C(C)[C@@H]1CC[C@]2(NCCC(=O)O)CC[C@]3(C)[C@H](CC[C@@H]4[C@@]5(C)CC=C(c6ccc(C(=O)O)cc6)C(C)(C)[C@@H]5CC[C@]43C)[C@@H]12 [Example B12, 4-((1R,3aS,5aR,5bR,7aR,11aS,11bR,13aR,13bR)-3a-((2-carboxyethyl)amino)-5a,5b,8,8,11a-pentamethyl-1-(prop-1-en-2-yl)-2,3,3a,4,5,5a,5b,6,7,7a,8,11,11a,11b,12,13,13a,13b-octadecahydro-1H-cyclopenta[a]chrysen-9-yl)benzoic acid] | < 100
C=C(C)[C@@H]1CC[C@]2(NCCN3CCN(C(=O)OC(C)(C)C)CC3)CC[C@]3(C)[C@H](CC[C@@H]4[C@@]5(C)CC=C(c6ccc(C(=O)O)cc6)C(C)(C)[C@@H]5CC[C@]43C)[C@@H]12 [Example B13, 4-((1R,3aS,5aR,5bR,7aR,11aS,11bR,13aR,13bR)-3a-((2-(4-(tert-butoxycarbonyl)piperazin-1-yl)ethyl)amino)-5a,5b,8,8,11a-pentamethyl-1-(prop-1-en-2-yl)-2,3,3a,4,5,5a,5b,6,7,7a,8,11,11a,11b,12,13,13a,13b-octadecahydro-1H-cyclopenta[a]chrysen-9-yl)benzoic acid] | < 100
C=C(C)[C@@H]1CC[C@]2(NCCN3CCC(S(C)(=O)=O)CC3)CC[C@]3(C)[C@H](CC[C@@H]4[C@@]5(C)CC=C(c6ccc(C(=O)O)cc6)C(C)(C)[C@@H]5CC[C@]43C)[C@@H]12 [Example B14, 4-((1R,3aS,5aR,5bR,7aR,11aS,11bR,13aR,13bR)-5a,5b,8,8,11a-pentamethyl-3a-((2-(4-(methylsulfonyl)piperidin-1-yl)ethyl)amino)-1-(prop-1-en-2-yl)-2,3,3a,4,5,5a,5b,6,7,7a,8,11,11a,11b,12,13,13a,13b-octadecahydro-1H-cyclopenta[a]chrysen-9-yl)benzoic acid] | < 100
C=C(C)[C@@H]1CC[C@]2(NCCN3CCN(S(C)(=O)=O)CC3)CC[C@]3(C)[C@H](CC[C@@H]4[C@@]5(C)CC=C(c6ccc(C(=O)O)cc6)C(C)(C)[C@@H]5CC[C@]43C)[C@@H]12 [Example B15, 4-((1R,3aS,5aR,5bR,7aR,11aS,11bR,13aR,13bR)-5a,5b,8,8,11a-pentamethyl-3a-((2-(4-(methylsulfonyl)piperazin-1-yl)ethyl)amino)-1-(prop-1-en-2-yl)-2,3,3a,4,5,5a,5b,6,7,7a,8,11,11a,11b,12,13,13a,13b-octadecahydro-1H-cyclopenta[a]chrysen-9-yl)benzoic acid] | < 100
CC(C)[C@@H]1CC[C@]2(NCCN3CCN(S(C)(=O)=O)CC3)CC[C@]3(C)[C@H](CC[C@@H]4[C@@]5(C)CC[C@H](c6ccc(C(=O)O)cc6)C(C)(C)[C@@H]5CC[C@]43C)[C@@H]12 [Example B16, 4-((1S,3aS,5aR,5bR,7aS,9S,11aS,11bR,13aR,13bR)-1-isopropyl-5a,5b,8,8,11a-pentamethyl-3a-((2-(4-(methylsulfonyl)piperazin-1-yl)ethyl)amino)icosahydro-1H-cyclopenta[a]chrysen-9-yl)benzoic acid] | < 100
C=C(C)[C@@H]1CC[C@]2(NCCN3CC4(COC4)C3)CC[C@]3(C)[C@H](CC[C@@H]4[C@@]5(C)CC=C(c6ccc(C(=O)O)cc6)C(C)(C)[C@@H]5CC[C@]43C)[C@@H]12 [Example B17, 4-((1R,3aS,5aR,5bR,7aR,11aS,11bR,13aR,13bR)-3a-((2-(2-oxa-6-azaspiro[3.3]heptan-6-yl)ethyl)amino)-5a,5b,8,8,11a-pentamethyl-1-(prop-1-en-2-yl)-2,3,3a,4,5,5a,5b,6,7,7a,8,11,11a,11b,12,13,13a,13b-octadecahydro-1H-cyclopenta[a]chrysen-9-yl)benzoic acid] | < 100
CC(C)[C@@H]1CC[C@]2(NCCN3CCC(S(C)(=O)=O)CC3)CC[C@]3(C)[C@H](CC[C@@H]4[C@@]5(C)CC[C@H](c6ccc(C(=O)O)cc6)C(C)(C)[C@@H]5CC[C@]43C)[C@@H]12 [Example B18, 4-((1S,3aS,5aR,5bR,7aS,9S,11aS,11bR,13aR,13bR)-1-isopropyl-5a,5b,8,8,11a-pentamethyl-3a-((2-(4-(methylsulfonyl)piperidin-1-yl)ethyl)amino)icosahydro-1H-cyclopenta[a]chrysen-9-yl)benzoic acid] | < 100
C=C(C)[C@@H]1CC[C@]2(NCCN3CCN(S(=O)(=O)CC)CC3)CC[C@]3(C)[C@H](CC[C@@H]4[C@@]5(C)CC=C(c6ccc(C(=O)O)cc6)C(C)(C)[C@@H]5CC[C@]43C)[C@@H]12 [Example B19, 4-((1R,3aS,5aR,5bR,7aR,11aS,11bR,13aR,13bR)-3a-((2-(4-(ethylsulfonyl)piperazin-1-yl)ethyl)amino)-5a,5b,8,8,11a-pentamethyl-1-(prop-1-en-2-yl)-2,3,3a,4,5,5a,5b,6,7,7a,8,11,11a,11b,12,13,13a,13b-octadecahydro-1H-cyclopenta[a]chrysen-9-yl)benzoic acid] | < 100
C=C(C)[C@@H]1CC[C@]2(NCCN3CCNCC3)CC[C@]3(C)[C@H](CC[C@@H]4[C@@]5(C)CC=C(c6ccc(C(=O)O)cc6)C(C)(C)[C@@H]5CC[C@]43C)[C@@H]12 [Example B20, 4-((1R,3aS,5aR,5bR,7aR,11aS,11bR,13aR,13bR)-5a,5b,8,8,11a-pentamethyl-3a-((2-(piperazin-1-yl)ethyl)amino)-1-(prop-1-en-2-yl)-2,3,3a,4,5,5a,5b,6,7,7a,8,11,11a,11b,12,13,13a,13b-octadecahydro-1H-cyclopenta[a]chrysen-9-yl)benzoic acid] | < 100
C=C(C)[C@@H]1CC[C@]2(NCCNS(C)(=O)=O)CC[C@]3(C)[C@H](CC[C@@H]4[C@@]5(C)CC=C(c6ccc(C(=O)O)cc6)C(C)(C)[C@@H]5CC[C@]43C)[C@@H]12 [Example B21, 4-((1R,3aS,5aR,5bR,7aR,11aS,11bR,13aR,13bR)-5a,5b,8,8,11a-pentamethyl-3a-((2-(methylsulfonamido)ethyl)amino)-1-(prop-1-en-2-yl)-2,3,3a,4,5,5a,5b,6,7,7a,8,11,11a,11b,12,13,13a,13b-octadecahydro-1H-cyclopenta[a]chrysen-9-yl)benzoic acid] | < 100
C=C(C)[C@@H]1CC[C@]2(NCCN3CCN(S(=O)(=O)C4CC4)CC3)CC[C@]3(C)[C@H](CC[C@@H]4[C@@]5(C)CC=C(c6ccc(C(=O)O)cc6)C(C)(C)[C@@H]5CC[C@]43C)[C@@H]12 [Example B22, 4-((1R,3aS,5aR,5bR,7aR,11aS,11bR,13aR,13bR)-3a-((2-(4-(cyclopropylsulfonyl)piperazin-1-yl)ethyl)amino)-5a,5b,8,8,11a-pentamethyl-1-(prop-1-en-2-yl)-2,3,3a,4,5,5a,5b,6,7,7a,8,11,11a,11b,12,13,13a,13b-octadecahydro-1H-cyclopenta[a]chrysen-9-yl)benzoic acid] | < 100
C=C(C)[C@@H]1CC[C@]2(NCCN3CCN(S(=O)(=O)CCC)CC3)CC[C@]3(C)[C@H](CC[C@@H]4[C@@]5(C)CC=C(c6ccc(C(=O)O)cc6)C(C)(C)[C@@H]5CC[C@]43C)[C@@H]12 [Example B23, 4-((1R,3aS,5aR,5bR,7aR,11aS,11bR,13aR,13bR)-5a,5b,8,8,11a-pentamethyl-1-(prop-1-en-2-yl)-3a-((2-(4-(propylsulfonyl)piperazin-1-yl)ethyl)amino)-2,3,3a,4,5,5a,5b,6,7,7a,8,11,11a,11b,12,13,13a,13b-octadecahydro-1H-cyclopenta[a]chrysen-9-yl)benzoic acid] | < 100

same assay, conditions: Renilla, NL43, luciferase activity in cells infected for 4-5 days with NLRluc recombinants, serial dilutions of inhibitor; numeric values; read-out: EC50

Compound | EC50 [nM]
CC(C)NC(=O)CN[C@]12CC[C@@H](C(C)C)[C@@H]1[C@H]1CC[C@@H]3[C@@]4(C)CC[C@H](c5ccc(C(=O)O)cc5)C(C)(C)[C@@H]4CC[C@@]3(C)[C@]1(C)CC2 [Example B9] | 10

Reference: US20140343000A1 (priority 2011, published 2014)
